Test results as given in US20220132898A1, “COMPOSITION COMPRISING TRANSGLYCOSYLATED STEVIOSIDE AND TRANSGLYCOSYLATED REBAUDIOSIDE A” (CJ CHEILJEDANG CORPORATION, priority 2019, published 2022).
“Also recorded” adds a separate entry of the source.

Columns and labels:
[1] = assay type: physicochemical
Experimental: The solubility of Rebaudioside A (RA), Stevioside (STV), α-1,6 transglucosylated Rebaudioside A (RA-Glu) of Example 1-1, and transglucosylated Stevioside (STV-Glu) was measured. In particular, the transglucosylated Stevioside was obtained by reacting Stevioside and sucrose in the presence of a glucosyltransferase in the same manner as in Example 1-1.
6 g of each of Rebaudioside A, Stevioside, transglucosylated Rebaudioside A, and transglucosylated Stevioside was mixed with 10 ml and then dissolved by sonication at 50° C. for 60 minutes. The resultant was incubated for 1 week in a water bath at 5° C., 15° C., 25° C., 35° C., 45° C., or 55° C. Thereafter, the resulting solution was centrifuged at 12000 rpm for 10 minutes, and 1 ml of the supernatant was collected and dried in an oven at 105° C. to measure the solubility.

[2] = Evaluation of actual sweetness and quality of sweetness by panels; assay type: in vivo; conditions: sample dissolved in water, evaluated by panels
Excerpt: Two samples prepared in Example 1-1 above were independently dissolved in water and provided to panels for evaluation of actual sweetness and the quality of sweetness.

Solubility (%) [1]	solubility as compared to Stevioside and Rebaudioside A, respectively [1]	Substance	Actual Sweetness [2]	Quality of Sweetness [2]
≥ 40↑ %	remarkably increased solubility	transglucosylated Stevioside [STV-Glu]		
		α-1,4 transglucosylated Rebaudioside A	19	Bitter taste is stronger than sweet taste, has greasy
≥ 40↑ %	remarkably increased solubility	α-1,6 transglucosylated Rebaudioside A [RA-Glu]		better quality of sweetness; also recorded: Gives sweet taste in the beginning, has a bit of bitter
